Data from paper PMC5760531, “Action Potential Recording and Pro-arrhythmia Risk Analysis in Human Ventricular Trabeculae” (Frontiers in Physiology, 2018).
Several values for one entry are separate records, joined by “and”; a condition that tells them apart may be missing. Equal entries are not always repeated.

Experiments:
[1] = tested on: human ventricular trabeculae; test: Action potential recording and pro-arrhythmic score analysis in human ventricular trabeculae (hVT); settings: for Beat Escape incidence / EADs incidence / Refractoriness Escape incidence: c1-c4: 25-;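 for all read-outs here: sharp microelectrode action potential recordings at 37°C in Tyrode-perfused trabeculae, 4 cumulative concentrations each applied 31 min, values averaged over last 30 APs, vehicle 0.1% DMSO as control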
[2] = human free (unbound) effective therapeutic plasma concentration used to calculate multiples; cited from earlier work
[3] = 1Hz, 75-, 250-, 2500-FOLD free ETPC (0.0004µM)
[4] = 2Hz, 75-, 250-, 2500-FOLD free ETPC (0.0004µM)
[5] = average raw data, 1Hz, c2-c5: 25-, 75-, 250-, 2500-FOLD free ETPC (0.0004µM)
[6] = average raw data, 2Hz, c2-c5: 25-, 75-, 250-, 2500-FOLD free ETPC (0.0004µM)

Question: For `Cc1ccc(O)c([C@H](CCN(C(C)C)C(C)C)c2ccccc2)c1` [TOLTERODINE, Tolterodine], which “Beat Escape incidence” value [1, 3] is on record?
Answer: The value was 0%.

Question: And the EADs incidence [1, 3]?
Answer: Its EADs incidence is 0%.

Question: And the “Refractoriness Escape incidence” value [1, 3]?
Answer: The value was 0%.

Question: What about the “Beat Escape incidence” value [1, 4] of the same molecule?
Answer: The value was 0%.

Question: What about the EADs incidence [1, 4] of the same molecule?
Answer: Its EADs incidence is 0%.

Question: What about the “Refractoriness Escape incidence” value [1, 4] of the same molecule?
Answer: Its value is 0%.

Question: What about the EAD induction ([1]; any testing concentration, 1 and 2 Hz) of the same molecule?
Answer: Its EAD induction is “did not induce EAD”.

Question: And the AMAX [1, 5]?
Answer: The AMAX was 110 mV and 113 mV and 107 mV and 112 mV.

Question: And the APD30 [1, 5]?
Answer: Its APD30 is 186 ms and 190 ms and 192 ms and 195 ms.

Question: What about the APD50 [1, 5] of the same molecule?
Answer: The APD50 was 248 ms and 256 ms and 279 ms and 294 ms.

Question: What about the APD90 [1, 5] of the same molecule?
Answer: The APD90 was 320 ms and 331 ms and 378 ms and 411 ms.

Question: What about the Alternans [1, 5] of the same molecule?
Answer: The Alternans was 0.39 and 0.41 and 0.53 and 0.63.

Question: What about the “Beat Escape” value [1, 5] of the same molecule?
Answer: Its value is 0.

Question: And the EADs [1, 5]?
Answer: The EADs was 0.

Question: What about the ERP [1, 5] of the same molecule?
Answer: Its ERP is 0.46 and 0.47 and 0.53 and 0.55.

Question: What about the “Max Dispersion” value [1, 5] of the same molecule?
Answer: Its value is 2.33 and 1.97 and 2.80 and 2.90.

Question: And the “Refractoriness Escape” value [1, 5]?
Answer: Its value is 0.

Question: And the STV [1, 5]?
Answer: The STV was 0.32 and 0.28 and 0.38 and 0.40.

Question: And the Triangulation [1, 5]?
Answer: Its Triangulation is 134 and 141 and 186 and 215.

Question: And the AMAX [1, 6]?
Answer: Its AMAX is 107 mV and 113 mV and 106 mV.

Question: What about the APD30 [1, 6] of the same molecule?
Answer: The APD30 was 131 ms and 143 ms and 136 ms and 134 ms.

Question: What about the APD50 [1, 6] of the same molecule?
Answer: Its APD50 is 184 ms and 197 ms and 203 ms and 210 ms.

Question: And the APD90 [1, 6]?
Answer: The APD90 was 254 ms and 268 ms and 299 ms and 327 ms.

Question: What about the “Beat Escape” value [1, 6] of the same molecule?
Answer: Its value is 0.

Question: What about the EADs [1, 6] of the same molecule?
Answer: Its EADs is 0.

Question: What about the ERP [1, 6] of the same molecule?
Answer: Its ERP is 0.49 and 0.48 and 0.54 and 0.56.

Question: And the “Max Dispersion” value [1, 6]?
Answer: The value was 2.38 and 2.93 and 4.08 and 4.05.

Question: What about the “Refractoriness Escape” value [1, 6] of the same molecule?
Answer: Its value is 0.

Question: What about the Triangulation [1, 6] of the same molecule?
Answer: The Triangulation was 123 and 126 and 163 and 193.

Question: What about the “effect on amplitude of AP” value ([1]; up to the highest testing concentration, 1 μM) of the same molecule?
Answer: The value was “negligible effects”.

Question: What about the “Free ETPC” value [2] of the same molecule?
Answer: The value was 0.0004 µM.
